{"source": "patent US4300557A", "about": "“Method for treating intraocular malignancies” (The United States of America as represented by the …, priority 1980, dated 1981)", "key": {"[1]": {"test": "Stability of BCNU in aqueous solution (absorbance at 232 nm)", "assay_type": "physicochemical", "excerpt": "The decomposition of BCNU in water and in 1% aqueous ethanol was followed by measuring the characteristic BCNU absorbance maximum at 232 nm, using a Beckman DK-2A spectrophotometer. A second maximum that appeared at 190 nm and increased during decomposition was not a reliable indicator of the drug's breakdown."}, "[2]": {"test": "Release of BCNU from silicone balloons into water", "assay_type": "physicochemical", "method": "Into one balloon prepared as in Example 1 was injected 0.15 ml. of 1% ethanol containing 0.6 mg. of BCNU and into a second balloon 0.15 ml. of 10% ethanol containing 0.5 mg of BCNU.\nEach balloon was placed in a scintillation vial containing 5 ml of water and shaken at 37° C. in an automatic shaker. At specified time intervals, the aqueous liquid was removed from the vials containing the balloons. The amount of BCNU dissolved in the water was determined by spectroscopic analysis (absorbance at 232 nm). The water in each scintillation vessel was replaced with 5 ml. of fresh water. […] Results for both ethanolic solutions were as in FIG. 2. (- - -).\nBCNU (7.5 mg/0.15 ml sesame oil) was injected into a silicone balloon which was placed in a flask with 5 ml of distilled water and shaken in an automatic shaker at 37° C. The procedure of Example 3(a) was repeated for as many time as positive absorption at 232 nm was recorded. When the experiment had to be interrupted overnight, the dried silicone balloon containing BCNU in sesame oil was stored at -15° C.\nBCNU in absolute ethanol solution (13 mg/0.15 ml, 20 mg/0.15 ml, and 60 mg/0.15 ml) was injected in each of three silicone balloons. Release of BCNU from the balloon was followed as in Example 3. Results of this experiment are shown in FIG. 3, in which (--. --. --.) represents data for the solution containing 13 mg of BCNU, (- - -) the solution containing 20 mg and (--) the solution containing 60 mg. A sharp drop in the BCNU release rate after 3-4 hours, indicated by the arrow in the Figure, is correlated with diffusion of all of the ETOH from the balloons."}, "Brown-Pearce epithelioma": {"system": "Brown-Pearce epithelioma", "test": "Histopathological observations of enucleated rabbit eyes with Brown-Pearce epithelioma", "assay_type": "in vivo, New Zealand female albino rabbits", "excerpt": "Preoperative examination of 28 eyes in 14 New Zealand femal albino rabbits weighing 2.0 to 2.5 kg included biomicroscopy, tonotometry, and indirect ophthalmoscopy. All animals had normal eyes. Both eyes of each animal were inoculated intracamerally with Brown-Pearce epithelioma tissue by the technique at 993 of Liu et al., Invest. Ophthalmol Visual Sci., Vol. 17 (1978).\nThree days after tumor tissue implantation, a silicone device described in Example 1 was implanted episclerally in each eye. Animals were anesthetized with sodium pentobarbital 24 mg/kg body weight administered intravenously. After routine preparation of the rabbit and the eyes, a pocket beneath the conjunctiva and Tenon's capsule was made in the upper temporal quadrant of the eye. The silicone device was inserted into the pocket but the small tube remained accessible to permit injection of test substance. Two 7-0 silk sutures were applied on both shoulders of the silicone device and on the episcleral tissue at the pars plana to hold the device in position. The conjunctiva was closed with two 7-0 silk sutures. Then 0.15 ml of the BCNU solution or the diluent (control) was injected into the device with a tuberculin syringe and a 30-gauge needle through the tube which was outside the closed conjunctiva as shown in FIG. 5. The injecting tube was fixed on the upper fornix.\nSeven animals (Group 1A) received 3.0 mg of BCNU in 0.15 ml of sesame oil in one eye on the third, sixth, and ninth days after tumor implantation (total dose 9.0 mg). Three animals (Group 1B) received 12.0 mg of BCNU in 0.15 ml of sesame oil on the same schedule (total dose 36.0/mg). Four animals (Group II) received 13.0 mg of BCNU in pure ethanol on the third and sixth days after tumor implantation (total dose 26.0 mg). The fellow eyes served as controls and received diluent only.\nOcular examinations were made on alternate days during the 20 days following tumor implantation; at that time all eyes were enucleated. The effectiveness of treatment was measured by (1) comparing the extent of tumor growth in the anterior chamber of treated and control eyes, (2) noting the occurrence of distortion and perforation of the globe due to tumor growth, (3) weighing all eyes following enucleation, and (4) comparing the histopathologic changes in the eyes.\nThe enucleated eyes were fixed in 10% buffered formalin in preparation for histopathological examination. A sagittal section on either side of the optic nerve was made. Pupil-optic nerve sections and the two calottes were processed routinely for histologic evaluation, using hematoxyline and eosin (H&E) stain. The eyes were imbedded in paraffin and cut in sections 6μ thick for light microscopy. Every fifth section was stained. About 50 sections from each eye were examined."}, "[3]": {"settings": "cited from earlier work"}, "[4]": {"settings": "ethanol in silicone rubber capsule, Schmidt et al.; cited from earlier work"}, "[5]": {"settings": "cited from earlier work", "remark": "listed apart in the source"}}, "note": "Where two headings read alike, the source gives them in different places.", "data": [{"smiles": "O=NN(CCCl)C(=O)NCCCl", "note": "[BCNU, 1,3-bis-(2-chloroethyl)-1-nitrosourea]", "values": [{"measurement": "half-life", "setting": "[1]; 1% ethanol, 1% ethanol solution, of the order of, read-out: Decomposition of BCNU in 1% ethanol solution", "value": "~4.1", "unit": "h"}, {"measurement": "half-life", "setting": "[1]; 1% ethanol, 37° C., read-out: half-life of BCNU in 1% ethanol", "value": 4.1, "unit": "h"}, {"measurement": "half-life", "setting": "[1]; water, 37° C., read-out: half-life of BCNU in water", "value": 3.83, "unit": "h"}, {"measurement": "rate of BCNU release from silicone balloons into water", "setting": "[2]; 1% or 10% ethanol, 37° C.", "value": "rapidly decreasing rate"}, {"measurement": "BCNU release rate after alcohol depletion, comparison of the three balloons", "setting": "[2]; 13, 20 and 60 mg/0.15 ml absolute ethanol", "value": "about the same for the three balloons"}, {"measurement": "depletion of BCNU from silicone microballoons", "setting": "[2]; BCNU in sesame oil", "value": "depleted rather rapidly"}, {"measurement": "rate of BCNU release from silicone microballoons into water", "setting": "[2]; BCNU in sesame oil, 37° C.", "value": "variable rate"}, {"measurement": "BCNU remaining inside balloons after alcohol depletion", "setting": "[2]; absolute ethanol", "value": "essentially pure BCNU remained inside the balloons"}, {"measurement": "time of sharp drop in the BCNU release rate", "setting": "[2]; absolute ethanol, 13, 20 and 60 mg/0.15 ml, 37° C.", "value": "3 to 4", "unit": "h"}, {"measurement": "rate of BCNU diffusion from balloon into water after alcohol depletion", "setting": "[2]; absolute ethanol, after the alcohol has left", "value": "relatively constant rate"}, {"measurement": "duration of BCNU release", "setting": "[2]; balloon containing the largest amount (60 mg/0.15 ml absolute ethanol)", "value": "released it over the longest time"}, {"measurement": "infiltration and extrascleral extension, histology", "setting": "Brown-Pearce epithelioma; Group I, BCNU in sesame oil", "value": "The inner scleral and corneal lamellae were infiltrated with tumor; no extrascleral extension was noted"}, {"measurement": "mitotic index", "setting": "Brown-Pearce epithelioma; Group I, BCNU in sesame oil", "value": "remained high"}, {"measurement": "necrosis", "setting": "Brown-Pearce epithelioma; Group I, BCNU in sesame oil", "value": "necrosis was prominent"}, {"measurement": "tumor extent, histology", "setting": "Brown-Pearce epithelioma; Group I, BCNU in sesame oil", "value": "Tumor growth tended to be limited to the anterior segment, but in some instances replaced the iris and ciliary body"}, {"measurement": "intraocular architecture and invasion of the cornea or sclera", "setting": "Brown-Pearce epithelioma; Group II, BCNU in pure ethanol", "value": "Normal intraocular architecture was maintained, with no evidence of invasion of the cornea or sclera"}, {"measurement": "mitotic index", "setting": "Brown-Pearce epithelioma; Group II, BCNU in pure ethanol", "value": "6 to 8", "unit": "per high power field"}, {"measurement": "necrosis versus control eyes", "setting": "Brown-Pearce epithelioma; Group II, BCNU in pure ethanol", "value": "less prominent than in control eyes"}, {"measurement": "reduction of tumor growth, histology", "setting": "Brown-Pearce epithelioma; Group II, BCNU in pure ethanol", "value": "most significant reduction of tumor growth"}, {"measurement": "tumor extent, histology", "setting": "Brown-Pearce epithelioma; Group II, BCNU in pure ethanol", "value": "Only small foci of tumor, limited to the anterior segment"}, {"measurement": "tumor nodules in iris and ciliary body, histology", "setting": "Brown-Pearce epithelioma; Group II, BCNU in pure ethanol", "value": "small nodules of tumor were found in the iris stroma and iris root with occasional involvement of the ciliary body"}, {"measurement": "histological difference between Group IA and Group IB eyes", "setting": "Brown-Pearce epithelioma; total 9.0 mg versus total 36.0 mg BCNU in sesame oil", "value": "no observable difference histologically"}, {"measurement": "reported half-life of BCNU in water", "setting": "[3]; Montgomery et al., J. Med. Chem. 1967", "value": 5.08, "unit": "h"}, {"measurement": "reported half-life of BCNU in water", "setting": "[3]; Schmidt et al., supra", "value": 2.33, "unit": "h"}, {"measurement": "Decomposition of BCNU in water", "setting": "[3]; in water, of the order of", "value": "140 to 305", "unit": "min"}, {"measurement": "decrease in BCNU concentration in the dialysate", "setting": "[4]", "value": "rapid decrease in BCNU concentration in the dialysate"}, {"measurement": "degradation in aqueous media", "setting": "[5]", "value": "degrades rapidly in aqueous media"}]}]}
